Laboratory results reported in patent US6689609B1, “Enhancing germination of plant somatic embryos by priming” (Cellfor Inc., priority 1999, dated 2004).
Read-outs that look alike come from different tables or passages of the source.

Legend:
[1] = tested on: interior spruce somatic embryos; format: in vivo, Picea glauca (Moench) Voss x P. engelmannii Parry ex Engelm.
Description: The second study assessed the effects adding various osmotica to nutripriming solutions on subsequent germination and development performance. Mature somatic embryos of interior spruce (Picea glauca (Moench) Voss x P. engelmannii Parry ex Engelm.) genotype 23-2672 were desiccated with the HRHT treatment, and then divided into 10 groups of 160 somatic embryos per group. One group was not primed and served as the HRHT control treatment for this study. […] The nutripriming solutions and embryos were placed into 250-ml Kimax® baffled flasks. The nutripriming duration was 72 hrs at temperatures ranging between 20-23° C., and a 24-hr photoperiod of 30 μmol m^−2s^−1 photosynthetic photon flux.
At the completion of the nutripriming step, the nutriprimed embryos from each treatment were divided into 8 groups of 20 embryos and sown by hand onto vermiculite media in Sigma polycarbonate boxes. The liquid media in these germination boxes were either 3% w/v sucrose m24GMD or m24GMD without sucrose. The experiment design was a random complete block design for each media type. Each nutripriming treatment had 4 replicates of 20 embryos in each germination media type. The germination boxes were placed in a germination room and grown for two weeks under 50-70 μmol m^−2s^−1 photosynthetic photon flux of 16-hour photoperiod at an air temperature of 23° C. The germinants were then harvested and assessed for germination rates, hyperhydricity rates, shoot and root length. Germination was defined as germinants having a root longer than 2 mm, and elongated hypercotyl. Hyperhydricity was defined by the thickening of hypercotyl and watery appearance of the germinants, whether germinated or not germinated.

[2] = tested on: interior spruce somatic embryos; test: Elevated sucrose levels (4-10% w/v) and extended nutripriming (3-5 days): ex vitro germination and growth of interior spruce genotypes 5-1378 and 107-2049; format: in vivo, Picea glauca (Moench) Voss x P. engelmannii Parry ex Engelm.
Protocol: Mature somatic embryos of interior spruce (Picea glauca (Moench) Voss x P. engelmannii Parry ex Engelm.) genotypes 5-1378 and 107-2049 t were desiccated with the HRHT treatment and stored at 4° C. Embryos were subsequently removed from storage and nutriprimed for one of 3, 4, or 5 days periods as previously described in ½ m24GMD liquid medium containing one of the following sucrose concentrations; 4, 6, 8, and 10% (all w/v). After the nutripriming treatments were completed, the embryos were sown ex vitro onto a peat-based polymer-bound horticultural growing substrate in 504-cell (4 ml/cell) styrofoam miniplug trays (Grow-Tech Inc., San Bautista, Calif.). The sown trays were then placed into a conventional non-sterile horticulture germination chamber in an environment-controlled growth room. The environmental conditions were 22-24° C. air temperature, 80-100% RH, 0.10-0.15% CO2, and a 16-hr photoperiod with 40-120 μmol m^−2s^−1 photosynthetic photon flux. Immediately after the trays containing ex vitro sown nutriprimed embryos were placed into the non-sterile germination chamber, they were misted with a ½ m24GMD nutrient solution amended with 3% w/v sucrose solution until the surfaces of the non-sterile growing substrates were well-wetted. Subsequently, the trays were misted with this solution daily for a 3-week germination period. Aseptic techniques or conditions were not used for application of the nutrient solutions, nor for the germination environment during the 2-week culture period. Furthermore, prophylactic applications of 0.1 g/l benlate, 0.05 g/l ampicillin plus 0.05 g/l penicillin G (or 0.1 ampicillin), and 5 ml/l Gnatrol® were applied at 5-day intervals to control fungi, bacteria, and fungus fly larvae.

[3] = germination media m24GMD (without sucrose), osmoticant levels as E220
[4] = germination media m24GMD plus 3% sucrose, osmoticant levels as E220
[5] = genotype 5-1378, 3% sucrose in nutripriming solution, 3 days priming
[6] = genotype 5-1378, 4% sucrose in nutripriming solution, 3 days priming
[7] = genotype 5-1378, 4% sucrose in nutripriming solution, 4 days priming
[8] = genotype 5-1378, 4% sucrose in nutripriming solution, 5 days priming
[9] = genotype 5-1378, 6% sucrose in nutripriming solution, 3 days priming
[10] = genotype 5-1378, 6% sucrose in nutripriming solution, 4 days priming
[11] = genotype 5-1378, 6% sucrose in nutripriming solution, 5 days priming
[12] = genotype 5-1378, 8% sucrose in nutripriming solution, 3 days priming
[13] = genotype 5-1378, 8% sucrose in nutripriming solution, 4 days priming
[14] = genotype 5-1378, 8% sucrose in nutripriming solution, 5 days priming
[15] = genotype 5-1378, 10% sucrose in nutripriming solution, 3 days priming
[16] = genotype 5-1378, 10% sucrose in nutripriming solution, 4 days priming
[17] = genotype 5-1378, 10% sucrose in nutripriming solution, 5 days priming
[18] = genotype 107-2049, 3% sucrose in nutripriming solution, 3 days priming
[19] = genotype 107-2049, 4% sucrose in nutripriming solution, 3 days priming
[20] = genotype 107-2049, 4% sucrose in nutripriming solution, 4 days priming
[21] = genotype 107-2049, 4% sucrose in nutripriming solution, 5 days priming
[22] = genotype 107-2049, 6% sucrose in nutripriming solution, 3 days priming
[23] = genotype 107-2049, 6% sucrose in nutripriming solution, 4 days priming
[24] = genotype 107-2049, 6% sucrose in nutripriming solution, 5 days priming
[25] = genotype 107-2049, 8% sucrose in nutripriming solution, 3 days priming
[26] = genotype 107-2049, 8% sucrose in nutripriming solution, 4 days priming
[27] = genotype 107-2049, 8% sucrose in nutripriming solution, 5 days priming
[28] = genotype 107-2049, 10% sucrose in nutripriming solution, 3 days priming
[29] = genotype 107-2049, 10% sucrose in nutripriming solution, 4 days priming
[30] = genotype 107-2049, 10% sucrose in nutripriming solution, 5 days priming

SMILES: OC[C@H]1O[C@@](CO)(O[C@H]2O[C@H](CO)[C@@H](O)[C@H](O)[C@H]2O)[C@@H](O)[C@@H]1O [sucrose]
- Germination % [1, 3]: 91.7 ± 8.3%
- Root length [1, 3]: 2.4 ± 0.1 mm
- Shoot length [1, 3]: 14.7 ± 0.3 mm
- Germination % ([1]; germination media m24GMD plus 3% sucrose, osmoticant in m24GMD priming solution (w/v): 1% betaine, 1.65% fructose, glucose, mannitol, sorbitol, 3% lactose, maltose, sucrose, 10% PEG 4000, 72 hrs): 100%
- Root length [1, 4]: 11.6 ± 0.9 mm
- Shoot length [1, 4]: 18.1 ± 0.4 mm
- % with hyperhydricity ([1]; in vivo): 40.0 ± 23.2%
- Germination % [2, 5]: 83.3 ± 8.8%
- Rooting % [2, 5]: 73.3 ± 8.8%
- Germination % [2, 6]: 98.3 ± 1.7%
- Rooting % [2, 6]: 86.7 ± 7.3%
- Germination % [2, 7]: 96.7 ± 3.3%
- Rooting % [2, 7]: 91.7 ± 4.4%
- Germination % [2, 8]: 96.5 ± 1.8%
- Rooting % [2, 8]: 91.5 ± 6.0%
- Germination % [2, 9]: 91.7 ± 4.4%
- Rooting % [2, 9]: 86.7 ± 3.3%
- Germination % [2, 10]: 96.7 ± 3.3%
- Rooting % [2, 10]: 90.0 ± 2.9%
- Germination % [2, 11]: 98.3 ± 1.7%
- Rooting % [2, 11]: 88.3 ± 4.4%
- Germination % [2, 12]: 91.7 ± 4.4%
- Rooting % [2, 12]: 66.7 ± 12.0%
- Germination % [2, 13]: 100%
- Rooting % [2, 13]: 91.7 ± 3.3%
- Germination % [2, 14]: 95.0 ± 5.0%
- Rooting % [2, 14]: 86.7 ± 8.3%
- Germination % [2, 15]: 84.7 ± 2.9%
- Rooting % [2, 15]: 52.5 ± 7.2%
- Germination % [2, 16]: 100%
- Rooting % [2, 16]: 88.3 ± 6.0%
- Germination % [2, 17]: 98.3 ± 1.7%
- Rooting % [2, 17]: 91.7 ± 4.4%
- Germination % [2, 18]: 91.7 ± 4.4%
- Rooting % [2, 18]: 68.3 ± 6.0%
- Germination % [2, 19]: 90.0 ± 5.0%
- Rooting % [2, 19]: 71.7 ± 8.8%
- Germination % [2, 20]: 84.6 ± 6.2%
- Rooting % [2, 20]: 62.3 ± 13.0%
- Germination % [2, 21]: 93.3 ± 6.7%
- Rooting % [2, 21]: 76.2 ± 4.5%
- Germination % [2, 22]: 81.7 ± 3.3%
- Rooting % [2, 22]: 66.7 ± 3.3%
- Germination % [2, 23]: 85.8 ± 2.2%
- Rooting % [2, 23]: 69.6 ± 6.1%
- Germination % [2, 24]: 86.7 ± 3.3%
- Rooting % [2, 24]: 70.0 ± 0.0%
- Germination % [2, 25]: 76.7 ± 4.4%
- Rooting % [2, 25]: 51.7 ± 4.4%
- Germination % [2, 26]: 93.3 ± 4.4%
- Rooting % [2, 26]: 88.3 ± 4.4%
- Germination % [2, 27]: 93.3 ± 4.4%
- Rooting % [2, 27]: 60.0 ± 0.0%
- Germination % [2, 28]: 81.7 ± 6.7%
- Rooting % [2, 28]: 36.7 ± 10.1%
- Germination % [2, 29]: 90.0 ± 7.6%
- Rooting % [2, 29]: 76.7 ± 8.3%
- Germination % [2, 30]: 86.7 ± 1.7%
- Rooting % [2, 30]: 51.7 ± 12.0%
